# Measured values reported in PubChem BioAssay (NCI).
#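 Test compounds were applied to cells in 96-well plates for 48 hours at 5 doses. GI50 is the concentration that inhibits growth by half. The concentration for full growth arrest is given as TGI.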
# Legend:
# Test in all cases: NCI-60 cell line screen, 48 h
# OVCAR-8 ovarian = test system: OVCAR-8 ovarian
# KM12 colon = test system: KM12 colon
# HOP-62 NSCLC = test system: HOP-62 NSCLC
# U251 CNS = test system: U251 CNS
# EKVX NSCLC = test system: EKVX NSCLC
# LOX IMVI melanoma = test system: LOX IMVI melanoma
# TK-10 renal = test system: TK-10 renal
# HS 578T breast = test system: HS 578T breast
# 786-0 renal = test system: 786-0 renal
# A498 renal = test system: A498 renal
# RPMI-8226 leukemia = test system: RPMI-8226 leukemia
# NCI-H460 lung = test system: NCI-H460 lung
# OVCAR-4 ovarian = test system: OVCAR-4 ovarian
# HCT-15 colon = test system: HCT-15 colon
# SK-MEL-28 melanoma = test system: SK-MEL-28 melanoma
# SNB-75 CNS = test system: SNB-75 CNS
# UO-31 renal = test system: UO-31 renal
# OVCAR-5 ovarian = test system: OVCAR-5 ovarian
# NCI-H226 lung = test system: NCI-H226 lung
# A549 NSCLC = test system: A549 NSCLC
# NCI-H522 lung = test system: NCI-H522 lung
# SK-MEL-2 melanoma = test system: SK-MEL-2 melanoma
# HCT-116 colon = test system: HCT-116 colon
# MOLT-4 leukemia = test system: MOLT-4 leukemia
# IGROV1 ovarian = test system: IGROV1 ovarian
# SK-OV-3 ovarian = test system: SK-OV-3 ovarian
# MCF7 breast = test system: MCF7 breast
# PC-3 prostate = test system: PC-3 prostate
# SNB-19 CNS = test system: SNB-19 CNS
# CAKI-1 renal = test system: CAKI-1 renal
# BT-549 breast = test system: BT-549 breast
# CCRF-CEM leukemia = test system: CCRF-CEM leukemia
# HCC-2998 colon = test system: HCC-2998 colon
# ACHN renal = test system: ACHN renal
# K-562 leukemia = test system: K-562 leukemia
# HL-60(TB) leukemia = test system: HL-60(TB) leukemia
# MALME-3M melanoma = test system: MALME-3M melanoma
# SF-268 CNS = test system: SF-268 CNS
# DU-145 prostate = test system: DU-145 prostate
# UACC-62 melanoma = test system: UACC-62 melanoma
# RXF 393 renal = test system: RXF 393 renal
# HOP-92 NSCLC = test system: HOP-92 NSCLC
# SK-MEL-5 melanoma = test system: SK-MEL-5 melanoma
# COLO 205 colon = test system: COLO 205 colon
# HT29 colon = test system: HT29 colon
# UACC-257 melanoma = test system: UACC-257 melanoma
# OVCAR-3 ovarian = test system: OVCAR-3 ovarian
# SF-295 CNS = test system: SF-295 CNS
# NCI-H23 lung = test system: NCI-H23 lung
# T-47D breast = test system: T-47D breast
# SN12C renal = test system: SN12C renal
# M14 melanoma = test system: M14 melanoma
# MDA-MB-231 breast = test system: MDA-MB-231 breast
# SW-620 colon = test system: SW-620 colon
compound,measurement,setting,value
COc1cc(/C=C\c2cc(OC)c(OC)c(OC)c2)cc(NS(=O)(=O)c2cccc(Cl)c2)c1OC,GI50,OVCAR-8 ovarian,429 nM
same,TGI,OVCAR-8 ovarian,> 100000 nM
same,GI50,KM12 colon,43.7 nM
same,TGI,KM12 colon,> 100000 nM
same,GI50,HOP-62 NSCLC,3160 nM
same,TGI,HOP-62 NSCLC,> 100000 nM
same,GI50,U251 CNS,48.2 nM
same,TGI,U251 CNS,> 100000 nM
same,GI50,EKVX NSCLC,264 nM
same,TGI,EKVX NSCLC,> 100000 nM
same,GI50,LOX IMVI melanoma,57.4 nM
same,TGI,LOX IMVI melanoma,> 100000 nM
same,GI50,TK-10 renal,2010 nM
same,TGI,TK-10 renal,> 100000 nM
same,GI50,HS 578T breast,79.5 nM
same,TGI,HS 578T breast,> 100000 nM
same,GI50,786-0 renal,60.1 nM
same,TGI,786-0 renal,> 100000 nM
same,GI50,A498 renal,21.8 nM
same,TGI,A498 renal,79.8 nM
same,GI50,RPMI-8226 leukemia,59.7 nM
same,TGI,RPMI-8226 leukemia,> 100000 nM
same,GI50,NCI-H460 lung,36.2 nM
same,TGI,NCI-H460 lung,> 100000 nM
same,GI50,OVCAR-4 ovarian,248 nM
same,TGI,OVCAR-4 ovarian,> 100000 nM
same,GI50,HCT-15 colon,146 nM
same,TGI,HCT-15 colon,> 100000 nM
same,GI50,SK-MEL-28 melanoma,1610 nM
same,TGI,SK-MEL-28 melanoma,49000 nM
same,GI50,SNB-75 CNS,29.8 nM
same,TGI,SNB-75 CNS,> 100000 nM
same,GI50,UO-31 renal,93.7 nM
same,TGI,UO-31 renal,> 100000 nM
same,GI50,OVCAR-5 ovarian,641 nM
same,TGI,OVCAR-5 ovarian,> 100000 nM
same,GI50,NCI-H226 lung,311 nM
same,TGI,NCI-H226 lung,> 100000 nM
same,GI50,A549 NSCLC,264 nM
same,TGI,A549 NSCLC,> 100000 nM
same,GI50,NCI-H522 lung,37.3 nM
same,TGI,NCI-H522 lung,88200 nM
same,GI50,SK-MEL-2 melanoma,1380 nM
same,TGI,SK-MEL-2 melanoma,> 100000 nM
same,GI50,HCT-116 colon,36.8 nM
same,TGI,HCT-116 colon,> 100000 nM
same,GI50,MOLT-4 leukemia,45.6 nM
same,TGI,MOLT-4 leukemia,> 100000 nM
same,GI50,IGROV1 ovarian,88.7 nM
same,TGI,IGROV1 ovarian,> 100000 nM
same,GI50,SK-OV-3 ovarian,1150 nM
same,TGI,SK-OV-3 ovarian,> 100000 nM
same,GI50,MCF7 breast,53.3 nM
same,TGI,MCF7 breast,> 100000 nM
same,GI50,PC-3 prostate,45.2 nM
same,TGI,PC-3 prostate,> 100000 nM
same,GI50,SNB-19 CNS,214 nM
same,TGI,SNB-19 CNS,> 100000 nM
same,GI50,CAKI-1 renal,52.7 nM
same,TGI,CAKI-1 renal,27800 nM
same,GI50,BT-549 breast,33.8 nM
same,TGI,BT-549 breast,2460 nM
same,GI50,CCRF-CEM leukemia,49.2 nM
same,TGI,CCRF-CEM leukemia,> 100000 nM
same,GI50,HCC-2998 colon,313 nM
same,TGI,HCC-2998 colon,60600 nM
same,GI50,ACHN renal,109 nM
same,TGI,ACHN renal,> 100000 nM
same,GI50,K-562 leukemia,38.3 nM
same,TGI,K-562 leukemia,> 100000 nM
same,GI50,HL-60(TB) leukemia,32 nM
same,TGI,HL-60(TB) leukemia,> 100000 nM
same,GI50,MALME-3M melanoma,20000 nM
same,TGI,MALME-3M melanoma,> 100000 nM
same,GI50,SF-268 CNS,202 nM
same,TGI,SF-268 CNS,> 100000 nM
same,GI50,DU-145 prostate,67.6 nM
same,TGI,DU-145 prostate,> 100000 nM
same,GI50,UACC-62 melanoma,56.8 nM
same,TGI,UACC-62 melanoma,> 100000 nM
same,GI50,RXF 393 renal,338 nM
same,TGI,RXF 393 renal,> 100000 nM
same,GI50,HOP-92 NSCLC,71.5 nM
same,TGI,HOP-92 NSCLC,> 100000 nM
same,GI50,SK-MEL-5 melanoma,229 nM
same,TGI,SK-MEL-5 melanoma,519 nM
same,GI50,COLO 205 colon,261 nM
same,TGI,COLO 205 colon,851 nM
same,GI50,HT29 colon,44.1 nM
same,TGI,HT29 colon,> 100000 nM
same,GI50,UACC-257 melanoma,20300 nM
same,TGI,UACC-257 melanoma,> 100000 nM
same,GI50,OVCAR-3 ovarian,34.6 nM
same,TGI,OVCAR-3 ovarian,> 100000 nM
same,GI50,SF-295 CNS,45.3 nM
same,TGI,SF-295 CNS,> 100000 nM
same,GI50,NCI-H23 lung,386 nM
same,TGI,NCI-H23 lung,> 100000 nM
same,GI50,T-47D breast,39500 nM
same,TGI,T-47D breast,> 100000 nM
same,GI50,SN12C renal,223 nM
same,TGI,SN12C renal,> 100000 nM
same,GI50,M14 melanoma,34.4 nM
same,TGI,M14 melanoma,> 100000 nM
same,GI50,MDA-MB-231 breast,259 nM
same,TGI,MDA-MB-231 breast,> 100000 nM
same,GI50,SW-620 colon,43.8 nM
same,TGI,SW-620 colon,> 100000 nM
